Each structure is given as a SMILES string. Read-outs that look alike come from different tables or passages of the source.

This note sets out measurements from publication PMC3912631, “Bench to Bed Evidences for Pharmacokinetic and Pharmacodynamic Interactions Involving Oseltamivir and Chinese Medicine” (Evidence-based Complementary and Alternative Medicine : eCAM, 2014).

Data set [1] in a line: Rat pharmacokinetics of OA and OC in plasma and urine after oral OA alone or with CMF1. It counts as in vivo, Sprague-Dawley rats. Conditions: for Tmax / Cmax / CL renal / half-life: male, Sprague-Dawley, in vivo, po, 30 mg/kg; for Tmax / Cmax / CL renal / half-life / AUC0–8 h / AUC0–inf / Renal recovery: oral, bid for 5 days; for Tmax: mean ± SD, read-out: T max (converted); for Cmax: read-out: C max; for CL renal: read-out: CL renal; for half-life: read-out: t 1/2, λz; for Renal recovery: urine over 8 h. As to the method:
The study was approved by the Animal Ethics Committee of The Chinese University of Hong Kong. Male Sprague-Dawley rats (230–250 g) were utilized and supplied by the Laboratory Animal Service Center at The Chinese University of Hong Kong. The rats were housed under standard conditions of temperature, humidity, and light and randomly divided into six groups with 10–12 rats in each group. […] The dose of 1.95 g/kg CMF1 is calculated based on the human dose recommended by the Chinese physicians and a doubled dose of CMF1 at […] is also used in the current study due to the potential large dosing range for Chinese medicine adopted in the practice. […]
For dosing, OA (4 mg/mL) was freshly prepared by dissolving it in water and orally given to rats by gavage, bid (twice daily) for 4 days (9:00am and 6:00pm for each day), and CMF1 was also freshly suspended in water and then orally given to rats 2 h later of OA dosing (11:00 am and 8:00 pm for each day).
For Groups of 1 to 3, a surgery for jugular vein cannulation was performed 1 h after CMF1 second dosing on day 4. A polyethylene catheter (0.50 mm ID, 1.00 mm OD, Portex Limited, Hythe, Kent, England) was cannulated into the right jugular vein under anesthesia. After surgery, the rat was placed in separated metabolic cage and allowed to recover and fasted overnight with free access to water. In the morning of day 5, blood samples (0.2 mL each) of the rats in the Groups 1–3 were collected via the catheter at 0, 15, 30, 60, 90, 120, 180, 240, 360, and 480 min after dosing of OA. After which, 0.2 mL of normal saline containing 20 units/mL of heparin was then injected into the catheter to flush the catheter. The collected blood samples were immediately placed in heparinized tubes containing dichlorvos (5 μL of 8 mg/mL dichlorvos in normal saline) for inhibition of carboxylesterase, followed by centrifugation to obtain the plasma and stored at −80°C. Urine samples were collected over 8 h postdose and combined with water used for rinsing the metabolic cage, further diluted to 200 mL, and then stored at −80°C until assay.
The rat/human plasma and urine samples were treated and analyzed by an LC/MS/MS system as previously described. Briefly, 200 μL plasma/urine samples was mixed with cephalexin hydrate (internal standard, IS) working solution (final 2 μg/mL) and acidified with 1 mL of 10% perchloric acid in water (if necessary, dilution with blank human urine was required for urine samples). After mixing and centrifugation, the supernatant was loaded in prewashed Oasis MCX cartridge (1 cc, 30 mg, Waters) and the cartridge was rinsed subsequently with 1% formic acid, water, and methanol followed by vacuum dried for 20 min. The analytes were then eluted with 1 mL of 1% ammonia in methanol. The eluting solvent was dried by a vacuum concentrator and the residue was reconstituted with 200 μL of 0.1% formic acid : methanol (1 : 1 v/v) prior to HPLC/MS/MS analysis using an ABI 2000 Q-Trap triple quadrupole mass spectrometer (Applied Biosystems) coupled with PE-200 series micropumps and autosampler (Perkin-Elmer). The chromatographic separation was achieved by using a Nova-Pak CN HP column (75 × 3.9 mm i.d., 4 μm particle size, Waters) and the HPLC solvent system consisted of methanol (A) and 0.1% formic acid in water (B), with 50% A (for plasma samples) or 60% A (for urine samples) at 1 mL/min. The temperatures of autosampler and the analytical column were set at 4°C and ambient, respectively, and the sample injection volume was 20 μL. Prior to the mass spectrometric system, 60% of the LC eluent was split off and only 40% of the eluent was introduced into the ESI source.
The plasma/urine OA and OC concentrations versus time profiles were analyzed using WinNonlin software standard edition version 2.1 (Pharsight Corporation). […] In human study, trough concentration (C trough) was defined as the minimum concentration obtained and was obtained at 12 h post-dose. […]

The nature of data set [2]: Rat in situ intestinal perfusion model, effect of CMF1 on absorption of OA. Type of data set: in vivo. The settings on record: CMF1 6.8 mg/mL vs OA alone (Figure 2). On the procedure: In view of the consistent effect of CMF1 on OA and OC, further confirmation was performed using rat in situ intestinal perfusion model as described previously. Perfusion concentrations were set at 6.8 mg/mL for CMF1. The flow rate of perfusate applied to the intestinal lumen was set at 0.3 mL/min. Samples obtained from the mesenteric vein were collected into the preweighted 2 mL centrifuge tubes (each containing 30 μL of 10 mg/mL saline solution of dichlorvos) at every 5 min. All collected samples were weighted and centrifuged at 13,000 rpm for 4 min immediately. The plasma samples were stored at −80°C refrigerator until further treated by SPE and analyzed by LC/MS/MS assay as described above.

Setting [3] is: Group 2: OA 30 mg/kg + CMF1 at 1.95 mg/kg.
[4] abbreviates: Group 3: OA 30 mg/kg + CMF1 at 3.90 mg/kg.

Consider `CCC(CC)O[C@@H]1C=C(C(=O)O)C[C@H](N)[C@H]1NC(C)=O` [OC, oseltamivir carboxylate], for which, in data set [1] (dose-dependent), the “decrease of C max, urinary recovery and AUC of OC and OC/OA AUC ratio in OA + CMF1 groups vs OA alone” value is on record as 26%-27%. In addition, in data set [1] (Group 1: OA alone 30 mg/kg), the Tmax is 1.75 h, the Cmax came to 1650 ± 400 ng/mL, the CL renal was 6.33 ± 1.27 mL/min and the half-life came to 152 ± 25.1 min. In data set [1] (Group 1: OA alone 30 mg/kg), the “AUC0–8 h” value worked out at 418.81 ± 90.86 μg∗min/mL, the “AUC0–inf” value is listed as 485.45 ± 113.03 μg∗min/mL and the Renal recovery is 35.26 ± 5.40 % of dose. Besides, in data set [1] (setting [3]), the Tmax was 1.77 h, the Cmax was 1360 ± 280 ng/mL, the CL renal is 6.27 ± 1.76 mL/min and the half-life came out at 146 ± 19.1 min. Also, in data set [1] (setting [3]), the “AUC0–8 h” value turned out to be 344.13 ± 91.46 μg∗min/mL, the “AUC0–inf” value is 395.67 ± 109.41 μg∗min/mL and the Renal recovery is reported as 29.73 ± 7.33 % of dose. In data set [1] (setting [4]), the Tmax is 2 h, the Cmax came out at 1190 ± 230 ng/mL, the CL renal came to 6.34 ± 0.69 mL/min and the half-life was 157 ± 16.8 min. Also, in data set [1] (setting [4]), the “AUC0–8 h” value turned out to be 304.84 ± 40.32 μg∗min/mL, the “AUC0–inf” value was 359.21 ± 41.30 μg∗min/mL and the Renal recovery is listed as 25.94 ± 3.09 % of dose. The “accumulated amount in rat mesenteric blood in presence of CMF1” value in data set [2] was “decreased without statistical significance”.
